What all share (format): binding
Test [1] concerns the target T1, NeoR (RGC3), rhodopsin fragment (Rhizoclosmatium globosum, UniProt A0A1Y2CSJ0, T238P).
T1 construct: gene BCR33DRAFT_847233; rhodopsin domain aa 1-279; C-terminal strepII tag (Sf21) or C-terminal 1D4 tag TETSQVAPA (HEK-T, mutants)
In words: UV-Vis absorption and fluorescence of purified protein. The following applies: 50 mM HEPES pH 7.4, 200 mM NaCl, 0.02% DDM/0.004% CHS; covalent (retinal Schiff base).

Test [2] has as its target T2, NeoR (RGC3), rhodopsin fragment (Rhizoclosmatium globosum, UniProt A0A1Y2CSJ0, S191A).
T2 construct: gene BCR33DRAFT_847233; rhodopsin domain aa 1-279; C-terminal strepII tag (Sf21) or C-terminal 1D4 tag TETSQVAPA (HEK-T, mutants)
Described as above. The following applies: 50 mM HEPES pH 7.4, 200 mM NaCl, 0.02% DDM/0.004% CHS; covalent (retinal Schiff base).

In test [3] the target is T3, NeoR (RGC3), rhodopsin fragment (Rhizoclosmatium globosum, UniProt A0A1Y2CSJ0, E262Q).
T3 construct: gene BCR33DRAFT_847233; rhodopsin domain aa 1-279; C-terminal strepII tag (Sf21) or C-terminal 1D4 tag TETSQVAPA (HEK-T, mutants)
T3 sequence (A0A1Y2CSJ0 entry or part of it E262Q): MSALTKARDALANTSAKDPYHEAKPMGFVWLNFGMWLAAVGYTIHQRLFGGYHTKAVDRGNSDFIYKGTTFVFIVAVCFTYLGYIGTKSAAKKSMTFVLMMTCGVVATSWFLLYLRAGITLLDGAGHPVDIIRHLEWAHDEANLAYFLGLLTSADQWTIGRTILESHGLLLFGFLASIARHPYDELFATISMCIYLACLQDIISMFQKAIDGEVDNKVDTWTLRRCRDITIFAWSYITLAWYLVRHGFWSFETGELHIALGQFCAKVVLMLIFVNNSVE
Described as above. Conditions: 50 mM HEPES pH 7.4, 200 mM NaCl, 0.02% DDM/0.004% CHS; covalent (retinal Schiff base).

Test [4] has as its target T4, NeoR (RGC3), rhodopsin fragment (Rhizoclosmatium globosum, UniProt A0A1Y2CSJ0, E136Q).
T4 construct: gene BCR33DRAFT_847233; rhodopsin domain aa 1-279; C-terminal strepII tag (Sf21) or C-terminal 1D4 tag TETSQVAPA (HEK-T, mutants)
Described as above. Conditions: 50 mM HEPES pH 7.4, 200 mM NaCl, 0.02% DDM/0.004% CHS; covalent (retinal Schiff base).

The next test has as its target T5, NeoR full-length protein (Rhizoclosmatium globosum, UniProt A0A1Y2CSJ0).
T5 construct: gene BCR33DRAFT_847233; full length aa 1-509, C-terminal His(8) tag, Sf21 insect cells
T5 sequence (A0A1Y2CSJ0 1-509): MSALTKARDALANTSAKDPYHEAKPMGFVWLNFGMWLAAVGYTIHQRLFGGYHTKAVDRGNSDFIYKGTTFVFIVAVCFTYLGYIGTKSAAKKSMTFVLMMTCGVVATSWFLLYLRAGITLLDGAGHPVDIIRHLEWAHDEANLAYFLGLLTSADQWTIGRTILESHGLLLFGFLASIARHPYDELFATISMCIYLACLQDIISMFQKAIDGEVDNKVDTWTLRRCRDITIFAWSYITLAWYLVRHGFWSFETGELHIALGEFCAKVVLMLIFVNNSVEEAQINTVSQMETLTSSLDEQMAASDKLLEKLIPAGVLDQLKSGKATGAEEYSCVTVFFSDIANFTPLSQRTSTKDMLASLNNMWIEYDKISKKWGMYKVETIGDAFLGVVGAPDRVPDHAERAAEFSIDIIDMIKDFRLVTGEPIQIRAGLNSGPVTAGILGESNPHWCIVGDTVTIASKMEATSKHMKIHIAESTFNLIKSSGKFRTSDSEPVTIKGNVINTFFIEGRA
The experiment in a line: UV-Vis absorption of purified protein. The following applies: detergent; covalent (retinal Schiff base).

Test [5] addresses T6, NeoR (RGC3), rhodopsin fragment (Rhizoclosmatium globosum, UniProt A0A1Y2CSJ0).
T6 construct: gene BCR33DRAFT_847233; rhodopsin domain aa 1-279; C-terminal strepII tag (Sf21) or C-terminal 1D4 tag TETSQVAPA (HEK-T, mutants)
The experiment in a line: UV-Vis absorption and fluorescence of purified protein. The following applies: 50 mM HEPES pH 7.4, 200 mM NaCl, 0.02% DDM/0.004% CHS; covalent (retinal Schiff base).

Test [6] deals with T7, NeoR (RGC3), rhodopsin fragment (Rhizoclosmatium globosum, UniProt A0A1Y2CSJ0, T238A).
T7 construct: gene BCR33DRAFT_847233; rhodopsin domain aa 1-279; C-terminal strepII tag (Sf21) or C-terminal 1D4 tag TETSQVAPA (HEK-T, mutants)
T7 sequence (A0A1Y2CSJ0 entry or part of it T238A): as the sequence (A0A1Y2CSJ0 entry or part of it E262Q) above, with T238A, Q262E counted along it
Described as above. The following applies: 50 mM HEPES pH 7.4, 200 mM NaCl, 0.02% DDM/0.004% CHS; covalent (retinal Schiff base).

T4 sequence (A0A1Y2CSJ0 entry or part of it E136Q): as the sequence (A0A1Y2CSJ0 entry or part of it E262Q) above, with E136Q, Q262E counted along it
T2 sequence (A0A1Y2CSJ0 entry or part of it S191A): as the sequence (A0A1Y2CSJ0 entry or part of it E262Q) above, with S191A, Q262E counted along it
T1 sequence (A0A1Y2CSJ0 entry or part of it T238P): as the sequence (A0A1Y2CSJ0 entry or part of it E262Q) above, with T238P, Q262E counted along it

`CC1=C(/C=C/C(C)=C/C=C/C(C)=C/C=O)C(C)(C)CCC1` [all-trans retinal]: the “UV-Vis absorption and fluorescence of purified protein” value in test [1] is “achieved by mutation of S191A and T238P/A, which are located near the β-ionone ring”; in test [2], “achieved by mutation of S191A and T238P/A, which are located near the β-ionone ring”; in test [3], “Mutation of either one of these to Gln results in chromophore deprotonation”; in test [4], “Mutation of either one of these to Gln results in chromophore deprotonation”; in test [5], “in the absence of retinal no functional rhodopsin was produced when recombinant NeoR was expressed”; in test [6] it was “achieved by mutation of S191A and T238P/A, which are located near the β-ionone ring”. In addition, the “UV-Vis absorption of purified protein” value on NeoR full-length protein was “The spectral properties are similar for the NeoR full-length protein and the rhodopsin fragment”.

The record behind these values is paper PMC7655827, “NeoR, a near-infrared absorbing rhodopsin” (Nature Communications, 2020).
